Laboratory results from BigSolDB 2.1.

CN(C)CCC=C1c2ccccc2CCc2ccccc21.Cl
solubility (mole fraction)
Conditions	278.15 K	283.15 K	288.15 K	293.15 K	298.15 K	303.15 K	308.15 K	313.15 K	318.15 K	323.15 K
in 2-butoxyethanol	0.0451	0.0494	0.0531	0.0595	0.066	0.0722	0.0793	0.0864	0.0942	0.102
in 2-ethoxyethanol	0.084	0.0895	0.0954	0.101	0.108	0.115	0.123	0.132	0.141	0.151
in 2-methoxyethanol	0.127	0.132	0.138	0.143	0.149	0.155	0.162	0.169	0.177	0.185
in 2-propoxyethanol	0.06	0.0641	0.0686	0.075	0.0814	0.0881	0.0955	0.103	0.111	0.119
in DMF	0.0295	0.0323	0.0354	0.0388	0.0423	0.0466	0.0509	0.0557	0.0611	0.0674
in NMP	0.0311	0.0342	0.0372	0.0412	0.0448	0.0492	0.0543	0.0594	0.0652	0.0716
in ethanol	0.0337	0.0423	0.0528	0.0653	0.0794	0.0938	0.108	0.122	0.136	0.148
in methanol	0.144	0.152	0.16	0.168	0.175	0.183	0.189	0.196	0.202	0.207
in n-butanol	0.0148	0.0187	0.0242	0.0316	0.0405	0.0508	0.0628	0.0765	0.091	0.105
in n-heptanol	0.0101	0.0124	0.0151	0.0184	0.0225	0.0274	0.0333	0.0402	0.0484	0.0581
in n-hexanol	0.0116	0.0145	0.0176	0.0217	0.027	0.0332	0.0407	0.0492	0.0595	0.0712
in n-octanol	0.00215	0.00267	0.00322	0.00388	0.00471	0.00568	0.00688	0.00824	0.00991	0.012
in n-pentanol	0.0127	0.0162	0.02	0.025	0.0321	0.04	0.0497	0.0613	0.0743	0.0887
in n-propanol	0.0218	0.028	0.0357	0.0453	0.0572	0.0708	0.0855	0.101	0.117	0.131
